Measurements published in patent US20180179174A1, “12H-BENZO[b]XANTHEN-12-ONES, COMPOSITIONS CONTAINING, AND USES OF, SAME” (Thesan Pharmaceuticals, Inc., priority 2015, published 2018).

Columns and labels:
[1] = biological target: T1, Aryl Hydrocarbon Receptor (Homo sapiens, UniProt P35869); assay: AhR activation, luciferase reporter (plox-XRE TATA-Luc) in HEP G2 cells; type: cell-based; details: 24 h, 1-10 uM
T1 construct: endogenous in cells; host or cells: normal human keratinocytes (NHK) transduced with the reporter lentivector plox-XRE TATA-Luc
T1 sequence (P35869 11-848): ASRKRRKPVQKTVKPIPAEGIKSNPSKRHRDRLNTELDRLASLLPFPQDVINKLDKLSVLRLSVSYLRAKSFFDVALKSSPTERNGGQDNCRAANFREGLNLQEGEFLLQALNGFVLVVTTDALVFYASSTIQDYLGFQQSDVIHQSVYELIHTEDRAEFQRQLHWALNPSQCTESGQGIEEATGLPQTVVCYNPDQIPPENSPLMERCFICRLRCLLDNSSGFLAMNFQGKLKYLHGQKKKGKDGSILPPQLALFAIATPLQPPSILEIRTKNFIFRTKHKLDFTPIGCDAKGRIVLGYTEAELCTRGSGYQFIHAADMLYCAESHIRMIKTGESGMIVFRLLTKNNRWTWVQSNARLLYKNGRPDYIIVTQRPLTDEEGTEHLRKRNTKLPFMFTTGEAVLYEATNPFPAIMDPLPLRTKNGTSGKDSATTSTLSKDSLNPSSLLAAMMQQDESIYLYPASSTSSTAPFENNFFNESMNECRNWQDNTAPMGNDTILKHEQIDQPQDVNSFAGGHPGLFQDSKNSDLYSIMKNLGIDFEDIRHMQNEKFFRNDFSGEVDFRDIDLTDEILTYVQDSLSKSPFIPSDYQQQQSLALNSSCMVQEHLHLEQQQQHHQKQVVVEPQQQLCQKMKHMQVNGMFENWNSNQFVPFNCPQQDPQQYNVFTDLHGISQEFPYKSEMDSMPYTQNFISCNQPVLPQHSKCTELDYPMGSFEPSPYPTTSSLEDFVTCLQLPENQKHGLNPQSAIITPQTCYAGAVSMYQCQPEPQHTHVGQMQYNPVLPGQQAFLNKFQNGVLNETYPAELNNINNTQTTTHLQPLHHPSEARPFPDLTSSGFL
Procedure: AhR activation is measured in HEP G2 cells (hepatocytes, Hep G2 is a human liver carcinoma cell line) stably transfected with the lentivector plox-XRE TATA-Luc. The Hep G2 cells are cultured in a growing media consisting of DMEM (Gibco)+10% fetal bovine serum+penicillin+streptomycin. At D0, the Hep G2 cells are seeded into 12-well plates in proportions of approximately 30,000 cells/cm^2. After 24 h, the medium is replaced with fresh medium and the cells are transduced with the lentivector plox-XRE TATA-Luc. After 48 h, the cells are subcultured and maintained in culture, and tested for their reactivity to 3-phenyl-1H-benzo[f]chromen-1-one. The tests are carried out using the luciferase reporter assay system kit from Promega. At D0, the cells are seeded at a density of approximately 60% confluence, and then treated, at D1, with the test substance diluted to various concentrations in the appropriate culture medium. At D2, the cells are lysed in CLB buffer, and the lysate is clarified by centrifugation for 5 min at 10 000 g. The luciferase activity is measured in 20 microliters of lysate as recommended by the supplier, using the luminoskan luminometer (Thermo). […] Data is processed and EC50's can be calculated from standard data monitoring software.

[2] = biological target: T1, Aryl Hydrocarbon Receptor; assay: AhR activation, luciferase reporter (plox-XRE TATA-Luc) in normal human keratinocytes; type: cell-based; details: NHK-plox-XRE TATA-Luc cells, 24 h, 1-10 uM
Procedure: AhR activation is also measured in human skin cells such as normal human keratinocytes (NHK cells) or A431 epidermoid cells stably transfected with the lentivector plox-XRE TATA-Luc. The NHK cells are cultured in a specific keratinocyte SFM medium (Gibco)+penicillin+streptomycin. At D0, the NHK cells are seeded into 6-well plates in a proportion of approximately 15,000 cells/cm^2. After 24 h, the medium is replaced with fresh medium and the cells are transduced with the lentivector plox-XRE TATA-Luc. After 48 h, the cells are subcultured and maintained in culture, and tested for their reactivity to 3-phenyl-1H-benzo[f]chromen-1-one. The tests are carried out using the luciferase reporter assay system kit from Promega. At D0, the cells are seeded at a density of approximately 60% confluence, and then treated, at D1, with the test substance diluted to various concentrations in the appropriate culture medium. At D2, the cells are lysed in CLB buffer, and the lysate is clarified by centrifugation for 5 min at 10 000 g. The luciferase activity is measured in 20 microliters of lysate as recommended by the supplier, using the luminoskan luminometer (Thermo). […] Data is processed and EC50's can be calculated from standard data monitoring software.

CYP1A1 [3] = assay: CYP1A1 activity test (P450-GLO) in HEP G2 or NHK cells; type: cell-based, human; details: 24 h, 1-10um, control compound
Procedure: The essential methodology for culture and handling of HEP G2 cells and NHK cells has been described in Examples 2 and 3. The tests are carried out using the P450-GLO assay kit from Promega. At D0, the cells are seeded at a density of approximately 60% confluence, and then treated at D1 with the test substance diluted to various concentrations in the appropriate culture medium. At D2, the CYP1A1 activity is measured as recommended by the supplier, using the non-lytic protocol on a cell monolayer.

CYP1A1 [4] = assay: Induction of Cyp1A1 in HEP G2 cells (EROD assay); type: cell-based; details: human, probe 7-ethoxyresorufin (8 μM), HepG2 cells, 1-10 μM range, vs solvent
Procedure: The essential methodology for culture and handling of HEP G2 cells and NHK cells has been described in Examples 2 and 3. HepG2 cells are seeded at between 1×10^4 and 2.5×10^4 cells/well in a 96-well microtitre plate. […] The formation of resorufin is quantified by fluorometry with a fluorescence plate reader. Fluorescence is determined at λex 570 nm and λem 590 nm. The amount of resorufin is calculated from a standard curve generated using 0 to 1 μM resorufin in water at ½ log dilutions. The remaining (i.e. all cells present at the beginning of analysis, since only supernatant is taken to assay EROD) live cells are subsequently utilized for the MIT cytotoxicity assay. MTT is made up in serum-free medium at 5 mg/ml. then added to the cells giving a final concentration of 10% (0.5 mg/ml MTT final) then incubated for 2 h. The medium is carefully removed, then MTT formazan is solubilized by adding 200 μl of DMSO and subsequently mixed on a plate shaker. The absorbance is measured spectrophotometrically at 550 nm and background absorbance at 690 nm is subtracted. A standard curve generated using MTT formazan (dissolved in DMSO) from 0-200 μM (0, 2, 5, 10, 20, 50, 100, 200 μM) is used to calculate the final experimental values which are then expressed as (μmol resorufin/mol MIT formazan) or as fold-induction compared to solvent.

sebaceous glands = assay: Mouse ear assay for determination of sebaceous gland prevalence; type: in vivo, C57BL/6J male mice; details: 0.7% in DMSO:acetone 50:50, 80 ul dermal twice a day for five days, vs controls
Procedure: C57BL/6J male mice (Harlan Models), approximately 4-5 weeks of age, body weight 20-30 g, were acclimatized (individually housed) for 5 days in a 12 hour light/dark cycle standard laboratory environment (T=20-24° C., relative humidity 30-70%, 15-20 air changes per hour) with access to water and standard rodent chow (Harlan Teklad 2014C supplied by Harlan Laboratories Models, S.L.) ad libitum. […] All animals were monitored daily for reaction to the treatment, signs of illness, and behavioral changes. Body weights were recorded before the first administration and immediately prior to sacrifice. Approximately 12 to 16 hours after the final administration on day 5 the mice were sacrificed by i.p. injection of sodium pentobarbital (200 mg/kg) and the ears were collected. Each ear was sectioned into two halves. For each animal, one-half of one ear was fixed, in neutral phosphate-buffered 4% formaldehyde solution (4% formalin). This trimmed section of the ear was then processed, embedded in paraffin wax and stored at room temperature. The remaining half of that ear and the entire opposite ear was frozen at −80° C. Wax mounted ear pieces were sectioned with a microtome and stained with hematoxylin and eosin. Sebaceous glands were identified visually by their structures. […]

induction of the luciferase activity [1]	induction (luciferase activity) [2]	induction of the CYP1A1 activity (CYP1A1 [3])	fold induction at 24 h (CYP1A1 [4])	Compound	number of differentiated sebocytes (sebaceous glands)	number of sebaceous glands (sebaceous glands)
significant induction	significant induction	significant induction		O=c1cc(-c2ccccc2)oc2ccc3ccccc3c12 [3-phenyl-1H-benzo[f]chromen-1-one]		
			> 20	O=c1c2ccccc2oc2cc3ccccc3cc12 [compound A]	reduction	clear reduction
